Test results from PubChem BioAssay AID651650 (Sanford-Burnham Center for Chemical Genomics, 2012).
Active and inactive are the calls of the source.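 Rule for the calls: active = mean IC50 below 20 µM in each of the two panels, so potent in both; inactive = the rest.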

Target: Neuropilin-1 (Homo sapiens) (UniProt O14786)
Assay: blockers of CendR peptide binding to NRP-1 – biochemical, FP and AlphaScreen panel, dose response (AID 651650)
Conditions: NRP-1 b1b2 / RPARPAR peptide binding, FP or AlphaScreen
[1] = AlphaScreen, run 1, individual panel run IC50
[2] = FP, run 1, individual panel run IC50
[3] = FP, run 2, individual panel run IC50

Sequence of Neuropilin-1 (Homo sapiens) (O14786 whole entry, looked up): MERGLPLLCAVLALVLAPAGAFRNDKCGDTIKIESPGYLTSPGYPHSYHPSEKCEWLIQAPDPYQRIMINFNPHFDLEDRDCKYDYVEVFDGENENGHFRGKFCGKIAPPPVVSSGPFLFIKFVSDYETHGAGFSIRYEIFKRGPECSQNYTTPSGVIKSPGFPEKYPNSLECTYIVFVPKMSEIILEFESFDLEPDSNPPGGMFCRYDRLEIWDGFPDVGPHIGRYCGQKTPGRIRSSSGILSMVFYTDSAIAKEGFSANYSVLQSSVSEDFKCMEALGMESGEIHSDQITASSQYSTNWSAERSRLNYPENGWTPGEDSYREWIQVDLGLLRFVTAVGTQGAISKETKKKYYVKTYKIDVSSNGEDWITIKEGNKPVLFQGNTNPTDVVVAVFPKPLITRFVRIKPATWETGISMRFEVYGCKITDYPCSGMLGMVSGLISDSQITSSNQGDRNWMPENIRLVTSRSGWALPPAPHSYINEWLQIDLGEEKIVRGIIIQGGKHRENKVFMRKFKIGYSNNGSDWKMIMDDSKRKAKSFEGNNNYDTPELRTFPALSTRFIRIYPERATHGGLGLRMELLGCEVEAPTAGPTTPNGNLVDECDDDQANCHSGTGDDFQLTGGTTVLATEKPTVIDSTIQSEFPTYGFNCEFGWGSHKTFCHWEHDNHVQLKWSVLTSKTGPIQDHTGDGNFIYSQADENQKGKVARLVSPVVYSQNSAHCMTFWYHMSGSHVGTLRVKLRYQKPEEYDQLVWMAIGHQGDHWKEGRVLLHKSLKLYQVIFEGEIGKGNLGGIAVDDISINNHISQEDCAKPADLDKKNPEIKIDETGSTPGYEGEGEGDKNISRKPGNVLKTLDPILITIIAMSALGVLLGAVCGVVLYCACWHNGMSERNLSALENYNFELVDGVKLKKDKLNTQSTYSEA

`C[C@@H]1CC=C[C@H]2[C@H]1C(=O)N(Cc1ccccc1)[C@H]2c1ccc(/C=C/c2ccccc2)cc1F` was tested, and the IC50 (AlphaScreen, mean of runs) was > 100 µM (inactive), the IC50 [1] was > 100 µM and the IC50 (FP, mean of runs) was > 95 µM (inactive). The IC50 [2] was > 95 µM and the IC50 [3] was > 95 µM.

For `CC(C)(C)n1nc(-c2ccc(F)cc2)c2c(N)ncnc21`, the IC50 (AlphaScreen, mean of runs) was > 100 µM (inactive), the IC50 [1] was > 100 µM and the IC50 (FP, mean of runs) was > 95 µM (inactive). For the same compound, the IC50 [2] was > 95 µM and the IC50 [3] was > 95 µM.

In the case of `Cc1ccc(C(=O)NCCCc2ccccc2)c(C)c1`, the IC50 (AlphaScreen, mean of runs) is reported as > 100 µM (inactive), the IC50 [1] is reported as > 100 µM and the IC50 (FP, mean of runs) is reported as > 95 µM (inactive). For the same compound, the IC50 [2] was > 95 µM and the IC50 [3] was > 95 µM.

For `CC(=O)NC(c1cccc(F)c1)c1nc(-c2cccc(C(F)(F)F)c2)cs1` (stereo not given), the IC50 (AlphaScreen, mean of runs) was > 100 µM (inactive), the IC50 [1] was > 100 µM and the IC50 (FP, mean of runs) was > 95 µM (inactive). For the same compound, the IC50 [2] was > 95 µM and the IC50 [3] was > 95 µM.

For `COC(=O)C[C@H]1c2cc(F)ccc2S(=O)(=O)N1C(C)C`, the IC50 (AlphaScreen, mean of runs) was > 100 µM (inactive), the IC50 [1] was > 100 µM and the IC50 (FP, mean of runs) was > 95 µM (inactive). The IC50 [2] was > 95 µM and the IC50 [3] was > 95 µM.

`COc1ccncc1-c1csc(C(O)c2ccccc2)n1` (stereo not given) was tested, and the IC50 (AlphaScreen, mean of runs) was > 100 µM (inactive), the IC50 [1] was > 100 µM and the IC50 (FP, mean of runs) was > 95 µM (inactive). For the same compound, the IC50 [2] was > 95 µM and the IC50 [3] was > 95 µM.

`CCOC(=O)C1=C(C)NC2=C(C(=O)CCC2)C1c1cn(Cc2ccc(Cl)cc2Cl)nc1-c1ccccc1` (stereo not given) was tested, and the IC50 (AlphaScreen, mean of runs) was “inactive”, the IC50 [1] was 35.5 µM and the IC50 (FP, mean of runs) was > 95 µM (inactive). For the same compound, the IC50 [2] was > 95 µM and the IC50 [3] was > 95 µM.

`CCN(C[C@H]1N[C@@](CC)(C(=O)OC)[C@H]2C(=O)N(C)C(=O)[C@@H]12)S(=O)(=O)c1ccc(OC)cc1` was tested, and the IC50 (AlphaScreen, mean of runs) was > 100 µM (inactive), the IC50 [1] was > 100 µM and the IC50 (FP, mean of runs) was > 95 µM (inactive). For the same compound, the IC50 [2] was > 95 µM and the IC50 [3] was > 95 µM.

For `CCC1=C(OC(=O)N(CC)CC)N2C(=O)OC(=NCC(=O)OC)[C@]2(C)[C@H]2C1=CC[C@H]1C(=O)N(CC)C(=O)[C@H]12`, the IC50 (AlphaScreen, mean of runs) was > 100 µM (inactive), the IC50 [1] was > 100 µM and the IC50 (FP, mean of runs) was > 95 µM (inactive). The IC50 [2] was > 95 µM and the IC50 [3] was > 95 µM.

`Cc1ccc(NC(=O)c2ccc3c(c2)S(=O)(=O)c2ccccc2C3=O)cc1S(=O)(=O)N1CCOCC1` was tested, and the IC50 (AlphaScreen, mean of runs) was > 100 µM (inactive), the IC50 [1] was > 100 µM and the IC50 (FP, mean of runs) was > 95 µM (inactive). The IC50 [2] was > 95 µM and the IC50 [3] was > 95 µM.

With `O=C(O)C1CCN(C(=O)c2ccc(Cl)cc2)CC1` the IC50 (AlphaScreen, mean of runs) was > 100 µM (inactive), the IC50 [1] was > 100 µM and the IC50 (FP, mean of runs) was > 95 µM (inactive). The IC50 [2] was > 95 µM and the IC50 [3] was > 95 µM.

`CC(=O)OC[C@@H]1CN(Cc2cccc(C(F)(F)F)c2)C[C@H](n2cnc3c(NCc4ccco4)ncnc32)O1` was tested, and the IC50 (AlphaScreen, mean of runs) was “inactive”, the IC50 [1] was 87.9 µM and the IC50 (FP, mean of runs) was > 95 µM (inactive). The IC50 [2] was > 95 µM and the IC50 [3] was > 95 µM.

`CC#CCN(Cc1ccco1)C(=O)C1CCC(=O)N(Cc2ccccc2F)C1` (stereo not given) was tested, and the IC50 (AlphaScreen, mean of runs) was > 100 µM (inactive), the IC50 [1] was > 100 µM and the IC50 (FP, mean of runs) was > 95 µM (inactive). The IC50 [2] was > 95 µM and the IC50 [3] was > 95 µM.

With `N#Cc1ccc(COC(=O)c2cnc(Cl)c(Cl)c2)cc1` the IC50 (AlphaScreen, mean of runs) was > 100 µM (inactive), the IC50 [1] was > 100 µM and the IC50 (FP, mean of runs) was > 95 µM (inactive). For the same compound, the IC50 [2] was > 95 µM and the IC50 [3] was > 95 µM.

With `O=C1CSC(c2cn(-c3ccccc3)nc2-c2cccs2)N1CC1CCCO1` (stereo not given) the IC50 (AlphaScreen, mean of runs) was “inactive”, the IC50 [1] was 44.4 µM and the IC50 (FP, mean of runs) was > 95 µM (inactive). For the same compound, the IC50 [2] was > 95 µM and the IC50 [3] was > 95 µM.

In the case of `CC(Nc1nc(-c2ccc(F)cc2)cs1)c1nc2cc(C(F)(F)F)ccc2n1CCOCCO` (stereo not given), the IC50 (AlphaScreen, mean of runs) is reported as > 100 µM (inactive), the IC50 [1] is reported as > 100 µM and the IC50 (FP, mean of runs) is reported as > 95 µM (inactive). The IC50 [2] was > 95 µM and the IC50 [3] was > 95 µM.

For `CC(C)(C)OC(=O)NCc1ccc(CNC(=O)c2nc[nH]c2C(=O)N2CCN(C(=O)OC(C)(C)C)CC2)cc1`, the IC50 (AlphaScreen, mean of runs) was > 100 µM (inactive), the IC50 [1] was > 100 µM and the IC50 (FP, mean of runs) was > 95 µM (inactive). For the same compound, the IC50 [2] was > 95 µM and the IC50 [3] was > 95 µM.

With `CN(c1ccc(OCC(=O)OCC(=O)Nc2ccc([N+](=O)[O-])cc2)cc1)S(=O)(=O)c1cccs1` the IC50 (AlphaScreen, mean of runs) was “inactive”, the IC50 [1] was 44.1 µM and the IC50 (FP, mean of runs) was > 95 µM (inactive). For the same compound, the IC50 [2] was > 95 µM and the IC50 [3] was > 95 µM.

In the case of `Cc1ccccc1S(=O)(=O)Nc1nc2ccccc2nc1NCCO`, the IC50 (AlphaScreen, mean of runs) is reported as > 100 µM (inactive), the IC50 [1] is reported as > 100 µM and the IC50 (FP, mean of runs) is reported as > 95 µM (inactive). For the same compound, the IC50 [2] was > 95 µM and the IC50 [3] was > 95 µM.

`CC(C)(C)n1cnc2cc(NC(=O)c3ccccc3)ccc21` was tested, and the IC50 (AlphaScreen, mean of runs) was 17 µM, the IC50 [1] was 17 µM and the IC50 (FP, mean of runs) was > 95 µM (inactive). For the same compound, the IC50 [2] was > 95 µM and the IC50 [3] was > 95 µM.

With `CNC(=O)NC(=O)C(C)OC(=O)c1c(C)noc1C` (stereo not given) the IC50 (AlphaScreen, mean of runs) was “inactive”, the IC50 [1] was 82 µM and the IC50 (FP, mean of runs) was > 95 µM (inactive). The IC50 [2] was > 95 µM and the IC50 [3] was > 95 µM.

`O=C(COC(=O)c1ccccn1)c1ccc([N+](=O)[O-])cc1` was tested, and the IC50 (AlphaScreen, mean of runs) was > 100 µM (inactive), the IC50 [1] was > 100 µM and the IC50 (FP, mean of runs) was > 95 µM (inactive). The IC50 [2] was > 95 µM and the IC50 [3] was > 95 µM.

With `O=C(c1ccccn1)N1CCN(S(=O)(=O)c2ccccc2)CC1` the IC50 (AlphaScreen, mean of runs) was “inactive”, the IC50 [1] was 27.8 µM and the IC50 (FP, mean of runs) was > 95 µM (inactive). The IC50 [2] was > 95 µM and the IC50 [3] was > 95 µM.

`FC(F)(F)c1cc(C(F)(F)F)c2ccc(Oc3ccccc3)nc2n1` was tested, and the IC50 (AlphaScreen, mean of runs) was > 100 µM (inactive), the IC50 [1] was > 100 µM and the IC50 (FP, mean of runs) was > 95 µM (inactive). The IC50 [2] was > 95 µM and the IC50 [3] was > 95 µM.

`CCCCCCCN1C(Nc2ccccc2)=NC[C@@H]1Cc1ccccc1` was tested, and the IC50 (AlphaScreen, mean of runs) was > 100 µM (inactive), the IC50 [1] was > 100 µM and the IC50 (FP, mean of runs) was > 95 µM (inactive). For the same compound, the IC50 [2] was > 95 µM and the IC50 [3] was > 95 µM.

For `CCCNC(=O)[C@H]1N2C(=O)c3c(ccc(OC)c3OC)C2SC1(C)C` (stereo not given in full), the IC50 (AlphaScreen, mean of runs) was “inactive”, the IC50 [1] was 62.5 µM and the IC50 (FP, mean of runs) was > 95 µM (inactive). For the same compound, the IC50 [2] was > 95 µM and the IC50 [3] was > 95 µM.

For `O=C(Cn1ccc(NC(=O)OCc2ccccc2)nc1=O)NCCCn1ccnc1`, the IC50 (AlphaScreen, mean of runs) was > 100 µM (inactive), the IC50 [1] was > 100 µM and the IC50 (FP, mean of runs) was > 95 µM (inactive). For the same compound, the IC50 [2] was > 95 µM and the IC50 [3] was > 95 µM.

For `OCC1OC(n2cnc3c(/C=C(\O)c4ccccc4)ncnc32)C(O)C1O` (stereo not given), the IC50 (AlphaScreen, mean of runs) was > 100 µM (inactive), the IC50 [1] was > 100 µM and the IC50 (FP, mean of runs) was > 95 µM (inactive). The IC50 [2] was > 95 µM and the IC50 [3] was > 95 µM.

For `COc1ccc(-c2noc(CN(C(=O)c3ccc4c(c3)OCO4)C(C)C)n2)cc1`, the IC50 (AlphaScreen, mean of runs) was > 100 µM (inactive), the IC50 [1] was > 100 µM and the IC50 (FP, mean of runs) was > 95 µM (inactive). For the same compound, the IC50 [2] was > 95 µM and the IC50 [3] was > 95 µM.

With `CC(C)Oc1ccc(F)cc1-c1cc(C(=O)NCc2ccc(F)cc2)[nH]n1` the IC50 (AlphaScreen, mean of runs) was > 100 µM (inactive), the IC50 [1] was > 100 µM and the IC50 (FP, mean of runs) was > 95 µM (inactive). The IC50 [2] was > 95 µM and the IC50 [3] was > 95 µM.

`Cc1cccc(NC(=O)c2ccc(OCc3c(C)noc3C)cc2)c1` was tested, and the IC50 (AlphaScreen, mean of runs) was 17.8 µM, the IC50 [1] was 17.8 µM and the IC50 (FP, mean of runs) was > 95 µM (inactive). The IC50 [2] was > 95 µM and the IC50 [3] was > 95 µM.

For `Nc1cc(S(=O)(=O)O)cc([N+](=O)[O-])c1O`, the IC50 (AlphaScreen, mean of runs) was 4.28 µM, the IC50 [1] was 4.28 µM and the IC50 (FP, mean of runs) was > 95 µM (inactive). The IC50 [2] was > 95 µM and the IC50 [3] was > 95 µM.

For `COc1cc(C(=O)Nc2cc3c(cc2N2CCCCC2)n(C)c(=O)n3C)cc(OC)c1OC`, the IC50 (AlphaScreen, mean of runs) was “inactive”, the IC50 [1] was 85 µM and the IC50 (FP, mean of runs) was > 95 µM (inactive). For the same compound, the IC50 [2] was > 95 µM and the IC50 [3] was > 95 µM.
